Experimental data from patent US20080287398A1, “COLD MENTHOL RECEPTOR-1 ANTAGONISTS” (priority 2007, published 2008).
Like-named read-outs stand apart in the source and are kept apart here.

What was measured:
human TRPM8 = target: T1, human TRPM8 (Homo sapiens, UniProt Q7Z2W7); assay: In vitro human TRPM8 functional assay (Ca2+ dye, FDSS, 100 nM icilin); type: cell-based; conditions: HEK293 cells transiently transfected with human TRPM8, read-out: hTRPM8 IC50
T1 construct: the full-length cDNAs encoding human and rat TRPM8 were subcloned; expressed in transfected cells; host or cells: HEK293 (transient, FuGENE 6, pCI-NEO vector)
Method: For functional expression of TRPM8, the full-length cDNAs encoding human and rat TRPM8 were subcloned into pCl-NEO mammalian expression vectors. The expression constructs were transiently transfected into HEK293 cells according to the FuGENE 6 transfection reagent® (ROCHE) instructions. HEK293 cells were routinely grown as monolayers in Dulbecco's minimum essential medium supplemented with 10% FBS, 1 mM L-glutamine, 100 units/mL penicillin and 100 ug/mL streptomycin. Cells were maintained in 5% CO2 at 37° C. […] Following incubation, plates were inserted into a FDSS instrument, where cells were challenged with a compound of Formula (I) (at varying concentrations) and intracellular Ca^2+ was measured for 5 min prior to the addition of 100 nM icilin. IC50 values for compounds of the present invention were determined from eight-point dose-response studies
Maximal fluorescence intensity (FI) achieved upon addition of icilin was exported from the FDSS and further analyzed using GraphPad Prism 3.02 (Graph Pad Software Inc., CA, U.S.A.). […] The dose response curves from the average of quadruplicate wells for each data point were analyzed by using nonlinear regression of either sigmoidal dose response or sigmoidal dose response (variable slope). Finally, the IC50 values were calculated with the best-fit dose curve determined by Prism.

male SD rats = assay: Chronic constriction injury (CCI) model of neuropathic pain, acetone-induced hypersensitivity; type: in vivo; conditions: rat; for ED50: po
Method: Through the mesh floor a series of five applications of acetone (0.05 mL/application) was sprayed onto the bottom of the paw using a multidose syringe device. A positive response took the form of an abrupt withdrawal or lifting of the paw. The percentage of positive responses from the five trials represented the individual's overall response that was then averaged over the entire treatment group. […] An ascending dose response relationship (as in Table 10 below) was generated by addition of successive doses of test compound followed by re-assessment of behavior.

Male Sprague-Dawley rats = assay: Cold pressor test in anesthetized rat; type: in vivo; conditions: 6 mg/kg i.v., time 10′, mean arterial pressure change on forelimb ice
Method: Compounds of Formula (I) can be tested in animals and humans for their ability to mitigate cardiovascular pressor responses evoked by cold exposure. The clinical cold pressor test assesses changes in blood pressure (BP) and cold pain perception during a 2-3 minute immersion of one hand into ice water. This test may be utilized to characterize analgesic compounds (Koltzenberg M et al. Pain. 2006, 126(1-3): 165-74) and to assess cold hypersensitivity (Desmeules J A et al. Arthritis Rheum. 2003, 48(5): 1420-9). A compound of Formula (I) was studied in an anesthetized rat cold pressor paradigm to determine whether TRPM8 antagonism would interfere with the blood pressure pressor response to cold stimulation of the forepaws. Male Sprague-Dawley rats (300-450 g) anesthetized with sodium pentobarbital were instrumented with a jugular catheter and an indwelling carotid artery pressure transducer. Vehicle (10% Solutol in water) or test compound was infused (1 mL/kg) over one minute through the intravenous catheter. […] Percent changes in mean arterial pressure in response to this cold stimulus were calculated for vehicle and test compound pretreatments. Percent inhibition attributed to treatment with test compound was then determined using the following formula: % Inhibition=[1−(cold evoked % change in BP post-test compound/cold evoked % change in BP post-vehicle)]×100.

Sprague-Dawley rats = assay: CFA-induced paw radiant heat hypersensitivity; type: in vivo, rat; conditions: po, rat; for inhibition in vivo at 30 mg/kg: 30 mg/kg p.o., read-out: % Reversal
Method: Intraplantar injection of Complete Freund's Adjuvant (CFA) in rodents results in a long-lasting inflammatory reaction, characterized by a pronounced hypersensitivity to both thermal and mechanical stimuli. This hypersensitivity peaks between 24-72 hours following injection and can last for several weeks. […] This paradigm also may be conducted with a multiple dosing or a prophylactic dosing regime designed to alter the course of hyperalgesia development. This test predicts the analgesic, anti-allodynic and antihyperalgesic effect of numerous effective clinical agents, including NSAIDS such as acetaminophen, aspirin and ibuprofen, and opioids such as morphine.
Each rat was placed in a test chamber on a warm glass surface and allowed to acclimate for approximately 10 minutes. A radiant thermal stimulus (beam of light) was then focused through the glass onto the plantar surface of each hind paw in turn. The thermal stimulus was automatically shut off by a photoelectric relay when the paw was moved or when the cut-off time was reached (20 seconds for radiant heat at ˜5 Amps). An initial (baseline) response latency to the thermal stimulus was recorded for each animal prior to the injection of CFA. Twenty-four hours following intraplantar CFA injection, the response latency of the animal to the thermal stimulus was then re-evaluated and compared to the animal's baseline response time. […] Immediately following the post-CFA latency assessment, test compound or vehicle (usually Solutol, hydroxypropyl methylcellulose, hydroxypropyl beta-cyclodextrin or PEG-400) was administered i.p. or p.o. to rats. […] The percent reversal (% R) of hypersenstivitiy was calculated according to the following formula:
% Reversal=(Treatment Response-CFA Response)/(Baseline Response-CFA Response)×100.

Male Sprague Dawley rats = assay: Inhibition of icilin-induced wet-dog shakes in rats; type: in vivo; conditions: rat, 15′ pre icilin

T1 sequence (Q7Z2W7 whole entry): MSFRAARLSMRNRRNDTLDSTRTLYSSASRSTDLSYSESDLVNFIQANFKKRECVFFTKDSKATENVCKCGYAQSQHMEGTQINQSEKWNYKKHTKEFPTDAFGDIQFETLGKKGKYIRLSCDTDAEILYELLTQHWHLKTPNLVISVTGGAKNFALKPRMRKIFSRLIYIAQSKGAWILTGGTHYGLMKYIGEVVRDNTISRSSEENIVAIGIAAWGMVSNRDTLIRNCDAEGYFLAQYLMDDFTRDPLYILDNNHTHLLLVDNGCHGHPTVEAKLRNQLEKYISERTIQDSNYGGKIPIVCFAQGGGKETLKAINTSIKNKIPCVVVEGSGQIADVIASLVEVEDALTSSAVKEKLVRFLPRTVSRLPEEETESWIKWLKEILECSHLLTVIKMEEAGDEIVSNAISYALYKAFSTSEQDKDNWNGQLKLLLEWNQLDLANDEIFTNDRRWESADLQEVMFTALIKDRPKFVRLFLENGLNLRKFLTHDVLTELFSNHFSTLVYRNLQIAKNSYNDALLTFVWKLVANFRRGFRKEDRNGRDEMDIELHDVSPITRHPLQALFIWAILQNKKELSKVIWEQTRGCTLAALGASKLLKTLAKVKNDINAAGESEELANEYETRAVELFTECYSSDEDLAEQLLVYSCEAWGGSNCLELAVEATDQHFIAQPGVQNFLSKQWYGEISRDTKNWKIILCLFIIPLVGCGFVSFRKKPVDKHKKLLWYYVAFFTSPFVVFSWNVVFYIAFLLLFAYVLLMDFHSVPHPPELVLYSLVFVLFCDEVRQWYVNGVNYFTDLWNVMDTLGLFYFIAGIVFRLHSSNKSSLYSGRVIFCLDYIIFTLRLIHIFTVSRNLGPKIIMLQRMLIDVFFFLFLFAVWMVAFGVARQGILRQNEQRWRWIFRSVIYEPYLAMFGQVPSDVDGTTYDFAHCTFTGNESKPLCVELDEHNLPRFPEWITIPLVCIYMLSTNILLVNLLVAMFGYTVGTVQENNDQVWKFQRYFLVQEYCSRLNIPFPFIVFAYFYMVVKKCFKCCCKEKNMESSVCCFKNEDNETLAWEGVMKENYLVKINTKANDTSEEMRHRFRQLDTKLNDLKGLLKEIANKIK

SMILES: CC(C)OP(=O)(OC(C)C)[C@@H](Cc1ccc(F)c(C(F)(F)F)c1)c1sc2ccccc2c1Br [Cpd 242, (S)-[1-(3-Bromo-benzo[b]thiophen-2-yl)-2-(4-fluoro-3-trifluoromethyl-phenyl)-ethyl]-phosphonic acid diisopropyl ester]
- IC50 (human TRPM8): 0.049 nM
- ED50 (male SD rats; preRx 3 hr): 18 mg/kg
- % of Allodynic Baseline (male SD rats; 3 mg/kg p.o., preRx 3 hr): 15.0%
- % of Allodynic Baseline (male SD rats; 10 mg/kg p.o., preRx 3 hr): 30.0%
- % of Allodynic Baseline (male SD rats; 30 mg/kg i.p., preRx 2 hr): 63.3%
- % of Allodynic Baseline (male SD rats; 30 mg/kg p.o., preRx 3 hr): 66.7%
- % of Allodynic Baseline (male SD rats; 100 mg/kg p.o., preRx 3 hr): 86.7%
- % I (inhibition of cold-induced pressor response) (Male Sprague-Dawley rats): 54%

SMILES: CC(C)OP(=O)(OC(C)C)[C@@H](Cc1ccc(F)c(F)c1)c1sc2ccccc2c1Br [Cpd 234, (S)-[1-(3-Bromo-benzo[b]thiophen-2-yl)-2-(3,4-difluoro-phenyl)-ethyl]-phosphonic acid diisopropyl ester]
- IC50 (human TRPM8): 0.054 nM
- ED50 (male SD rats; preRx 1 hr): 14.8 mg/kg
- % of Allodynic Baseline (male SD rats; 3 mg/kg p.o., preRx 1 hr): 16.7%
- % of Allodynic Baseline (male SD rats; 3 mg/kg p.o., preRx 2 hr): 10.0%
- % of Allodynic Baseline (male SD rats; 10 mg/kg p.o., preRx 1 hr): 51.7%
- % of Allodynic Baseline (male SD rats; 30 mg/kg p.o., preRx 1 hr): 59.6%
- % of Allodynic Baseline (male SD rats; 30 mg/kg p.o., preRx 2 hr): 56.7%
- % of Allodynic Baseline (male SD rats; 100 mg/kg p.o., preRx 1 hr): 83.1%
- % of Allodynic Baseline (male SD rats; 100 mg/kg p.o., preRx 2 hr): 93.3%
- inhibition in vivo at 30 mg/kg (Sprague-Dawley rats; time 1 h): 75%
- inhibition in vivo at 30 mg/kg (Sprague-Dawley rats; time 2 h (printed 2 h or 2)): 56%
- ED50 (Sprague-Dawley rats; p.o., read-out: ED50): 6.6 mg/kg
- ED50 (Male Sprague Dawley rats; po): 24.3 mg/kg
- % Inhibition (Male Sprague Dawley rats; 10 mg/kg p.o.): 14.2%
- % Inhibition (Male Sprague Dawley rats; 30 mg/kg p.o.): 68.0%
- % Inhibition (Male Sprague Dawley rats; 100 mg/kg p.o.): 92.9%
